Data: patent publication US20120309750A1, “5-MEMBERED HETEROCYCLE DERIVATIVES AND MANUFACTURING PROCESS THEREOF” (ILDONG PHARM CO., LTD., priority 2010, published 2012)

Experiments:
[1] = biological target: yeast HSP90 (Saccharomyces cerevisiae, UniProt P02829); assay: Hsp90 ATPase assay (malachite green); type: biochemical
Method: (§1) For present invention, the ATPase activity of yeast HSP90 was measured using malachite green assay. Formula I compounds for primary antitumoral activity were treated in human colorectal cancer cells (HCT116) showing increased expression levels of HSP90 client protein and cotoxicity IC50 values was measured as a result.

[2] = tested on: human colorectal cancer cells (HCT116); assay: Growth inhibition assay (cytotoxicity) in HCT116; type: cell-based; conditions: HCT-116
Method: as §1

yeast HSP90, sequence (P02829 whole entry): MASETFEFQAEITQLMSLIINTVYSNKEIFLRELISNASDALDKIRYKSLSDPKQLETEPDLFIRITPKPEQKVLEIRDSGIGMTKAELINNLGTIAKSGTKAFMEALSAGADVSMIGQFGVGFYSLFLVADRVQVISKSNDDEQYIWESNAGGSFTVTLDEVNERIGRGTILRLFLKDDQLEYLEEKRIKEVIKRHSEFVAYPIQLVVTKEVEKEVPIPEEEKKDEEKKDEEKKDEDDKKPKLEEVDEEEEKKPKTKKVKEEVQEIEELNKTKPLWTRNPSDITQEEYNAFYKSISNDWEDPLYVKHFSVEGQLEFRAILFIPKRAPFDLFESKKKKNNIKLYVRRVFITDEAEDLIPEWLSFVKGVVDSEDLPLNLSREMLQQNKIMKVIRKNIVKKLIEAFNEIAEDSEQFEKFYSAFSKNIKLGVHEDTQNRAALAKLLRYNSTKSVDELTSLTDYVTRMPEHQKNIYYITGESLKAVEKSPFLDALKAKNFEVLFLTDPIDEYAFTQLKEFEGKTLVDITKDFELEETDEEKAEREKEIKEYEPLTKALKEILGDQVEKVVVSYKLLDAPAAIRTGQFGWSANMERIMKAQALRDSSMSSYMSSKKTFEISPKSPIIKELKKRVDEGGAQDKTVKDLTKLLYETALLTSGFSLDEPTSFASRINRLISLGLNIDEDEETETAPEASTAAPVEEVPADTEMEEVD

| Structure (SMILES) | IC50 [1] [nM] | IC50 [2] [nM] |
| --- | --- | --- |
| CCNC(=O)c1noc(-c2cc(C(C)C)c(O)cc2O)c1-c1noc(C2CCCCC2)n1 [Compound I-89, 4-(5-Cyclohexyl-1,2,4-oxadiazol-3-yl)-5-(2,4-dihydroxy-5-isopropylphenyl)-N-ethylisoxazole-3-carboxamide] | 500 to 1000 | < 500 |
| CCNC(=O)c1noc(-c2cc(C(C)C)c(O)cc2O)c1-c1noc(CN2CCOCC2)n1 [Compound I-92, 5-(2,4-Dihydroxy-5-isopropylphenyl)-N-ethyl-4-(5-(morpholinomethyl)-1,2,4-oxadiazol-3-yl)isoxazole-3-carboxamide] | 500 to 1000 | < 500 |
| CC(=O)NCc1noc(-c2cc(C(C)C)c(O)cc2O)c1-c1ccsc1 [Compound I-6, N-((5-(2,4-Dihydroxy-5-isopropylphenyl)-4-(thiophen-3-yl)isoxazol-3-yl)methyl)acetamide] | > 1000 | < 500 |
| CCNC(=O)c1noc(-c2cc(C(C)C)c(O)cc2O)c1C1CC(C(=O)OCC)=NO1 (stereo not shown) [Compound I-7, Ethyl 5-(5-(2,4-dihydroxy-5-isopropylphenyl)-3-(ethylcarbamoyl)isoxazol-4-yl)-4,5-dihydroisoxazole-3-carboxylate] | 500 to 1000 | 500 to 1000 |
| CCNC(=O)c1noc(-c2cc(C(C)C)c(O)cc2O)c1-c1cc(C#N)no1 [Compound I-48, 3′-Cyano-5-(2,4-dihydroxy-5-isopropylphenyl)-N-ethyl-4,5′-biisoxazole-3-carboxamide] | 500 to 1000 | < 500 |
| CCNC(=O)c1noc(-c2cc(C(C)C)c(O)cc2O)c1-c1noc(-c2ccco2)n1 [Compound I-63, 5-(2,4-Dihydroxy-5-isopropylphenyl)-N-ethyl-4-(5-(furan-2-yl)-1,2,4-oxadiazol-3-yl)isoxazole-3-carboxamide] | < 500 | < 500 |
| CCNC(=O)c1noc(-c2cc(C(C)C)c(O)cc2O)c1-c1noc(N(C)C)n1 [Compound I-72, 5-(2,4-Dihydroxy-5-isopropylphenyl)-4-(5-(dimethylamino)-1,2,4-oxadiazol-3-yl)-N-ethylisoxazole-3-carboxamide] | < 500 | < 500 |
| CCNC(=O)c1noc(-c2cc(C(C)C)c(O)cc2O)c1-c1noc(OC)n1 [Compound I-86, 5-(2,4-Dihydroxy-5-isopropylphenyl)-N-ethyl-4-(5-methoxy-1,2,4-oxadiazol-3-yl)isoxazole-3-carboxamide] | 500 to 1000 | < 500 |
| CCNC(=O)c1noc(-c2cc(C(C)C)c(O)cc2O)c1-c1noc(CO)n1 [Compound I-81, 5-(2,4-Dihydroxy-5-isopropylphenyl)-N-ethyl-4-(5-(hydroxymethyl)-1,2,4-oxadiazol-3-yl)isoxazole-3-carboxamide] | 500 to 1000 | < 500 |
| CCNC(=O)c1noc(-c2cc(C(C)C)c(O)cc2O)c1-c1noc(-c2ccc(OC)cc2)n1 [Compound I-84, 5-(2,4-Dihydroxy-5-isopropylphenyl)-N-ethyl-4-(5-(4-methoxyphenyl)-1,2,4-oxadiazol-3-yl)isoxazole-3-carboxamide] | 500 to 1000 | 500 to 1000 |
| CCNC(=O)c1noc(-c2cc(Cl)c(O)cc2O)c1-c1cc(C(=O)OCC)no1 [Compound I-25, Ethyl 5-(5-chloro-2,4-dihydroxyphenyl)-3-(ethylcarbamoyl)-4,5′-biisoxazole-3′-carboxylate] | 500 to 1000 | > 1000 |
| CCNC(=O)c1noc(-c2cc(C(C)C)c(O)cc2O)c1-c1cc(CN(CC)CC)no1 [Compound I-20, 3′-((Diethylamino)methyl)-5-(2,4-dihydroxy-5-isopropylphenyl)-N-ethyl-4,5′-biisoxazole-3-carboxamide] | < 500 | < 500 |
| CCNC(=O)c1noc(-c2cc(C(C)C)c(O)cc2O)c1-c1cc(CC#N)no1 [Compound I-35, 3′-(Cyanomethyl)-5-(2,4-dihydroxy-5-isopropylphenyl)-N-ethyl-4,5′-biisoxazole-3-carboxamide] | < 500 | < 500 |
| CCNCc1cc(-c2c(C(=O)NCC)noc2-c2cc(C(C)C)c(O)cc2O)on1 [Compound I-27, 5-(2,4-Dihydroxy-5-isopropylphenyl)-N-ethyl-3′-((ethylamino)methyl)-4,5′-biisoxazole-3-carboxamide] | < 500 | < 500 |
| CCNC(=O)c1noc(-c2cc(C(C)C)c(O)cc2O)c1-c1ncon1 [Compound I-66, 5-(2,4-Dihydroxy-5-isopropylphenyl)-N-ethyl-4-(1,2,4-oxadiazol-3-yl)isoxazole-3-carboxamide] | 500 to 1000 | < 500 |
| CCNC(=O)c1noc(-c2cc(C(C)C)c(O)cc2O)c1-c1cn[nH]c1 [Compound I-103, 5-(2,4-Dihydroxy-5-isopropylphenyl)-N-ethyl-4-(1H-pyrazol-4-yl)isoxazole-3-carboxamide] | < 500 | < 500 |

| Structure (SMILES) | IC50 [1] [nM] | IC50 [2] [nM] |
| --- | --- | --- |
| CCNC(=O)c1noc(-c2cc(C(C)C)c(O)cc2O)c1-c1ccsc1CN1CCOCC1 [Compound I-2, 5-(2,4-Dihydroxy-5-isopropylphenyl)-N-ethyl-4-(2-(morpholinomethyl)thiophen-3-yl)isoxazole-3-carboxamide] | > 1000 | < 500 |
| C=CCO/N=C/c1cc(-c2c(C(=O)NCC)noc2-c2cc(C(C)C)c(O)cc2O)on1 [Compound I-54, 3′-((Allyloxyimino)methyl)-5-(2,4-dihydroxy-5-isopropylphenyl)-N-ethyl-4,5′-biisoxazole-3-carboxamide] | 500 to 1000 | < 500 |
| CCNC(=O)c1noc(-c2cc(C(C)C)c(O)cc2O)c1-c1noc(NC)n1 [Compound I-79, 5-(2,4-Dihydroxy-5-isopropylphenyl)-N-ethyl-4-(5-(methylamino)-1,2,4-oxadiazol-3-yl)isoxazole-3-carboxamide] | 500 to 1000 | < 500 |
| CCNC(=O)c1noc(-c2cc(C(C)C)c(O)cc2O)c1-c1cc(CN2CCCC2)no1 [Compound I-39, 5-(2,4-Dihydroxy-5-isopropylphenyl)-N-ethyl-3′-(pyrrolidin-1-ylmethyl)-4,5′-biisoxazole-3-carboxamide] | 500 to 1000 | < 500 |
| CCNC(=O)c1noc(-c2cc(C(C)C)c(O)cc2O)c1-c1cc(C(=O)OCC)no1 [Compound I-15, Ethyl 5-(2,4-dihydroxy-5-isopropylphenyl)-3-(ethylcarbamoyl)-4,5′-biisoxazole-3′-carboxylate] | < 500 | > 1000 |
| CCNC(=O)c1noc(-c2cc(C(C)C)c(O)cc2O)c1-c1cc(C(=O)O)no1 [Compound I-26, 5-(2,4-Dihydroxy-5-isopropylphenyl)-3-(ethylcarbamoyl)-4,5′-biisoxazole-3′-carboxylic acid] | > 1000 | > 1000 |
| CCNC(=O)c1noc(-c2cc(C(C)C)c(O)cc2O)c1-c1noc(C(F)(F)F)n1 [Compound I-57, 5-(2,4-Dihydroxy-5-isopropylphenyl)-N-ethyl-4-(5-(trifluoromethyl)-1,2,4-oxadiazol-3-yl)isoxazole-3-carboxamide] | 500 to 1000 | < 500 |
| CCNC(=O)c1noc(-c2cc(C(C)C)c(O)cc2O)c1-c1ccn(C)n1 [Compound I-97, 5-(2,4-Dihydroxy-5-isopropylphenyl)-N-ethyl-4-(1-methyl-1H-pyrazol-3-yl)isoxazole-3-carboxamide] | 500 to 1000 | < 500 |
| CCNC(=O)c1noc(-c2cc(C(C)C)c(O)cc2O)c1-c1cc(CN2CCN(C)CC2)no1 [Compound I-43, 5-(2,4-Dihydroxy-5-isopropylphenyl)-N-ethyl-3′-((4-methylpiperazin-1-yl)methyl)-4,5′-biisoxazole-3-carboxamide] | 500 to 1000 | < 500 |
| CCNC(=O)c1noc(-c2cc(C(C)C)c(O)cc2O)c1-c1nnn(C)n1 [Compound I-12, 5-(2,4-Dihydroxy-5-isopropylphenyl)-N-ethyl-4-(2-methyl-2H-tetrazol-5-yl)isoxazole-3-carboxamide] | < 500 | < 500 |
| CCNC(=O)c1noc(-c2cc(C(C)C)c(O)cc2O)c1-c1noc(C2CCCC2)n1 [Compound I-88, 4-(5-Cyclopentyl-1,2,4-oxadiazol-3-yl)-5-(2,4-dihydroxy-5-isopropylphenyl)-N-ethylisoxazole-3-carboxamide] | < 500 | < 500 |
| CCNC(=O)c1noc(-c2cc(C(C)C)c(O)cc2O)c1-c1noc(N2CCCC2)n1 [Compound I-69, 5-(2,4-Dihydroxy-5-isopropylphenyl)-N-ethyl-4-(5-(pyrrolidin-1-yl)-1,2,4-oxadiazol-3-yl)isoxazole-3-carboxamide] | 500 to 1000 | < 500 |
| CCNC(=O)c1noc(-c2cc(C(C)C)c(O)cc2O)c1-c1ccc(CN2CCOCC2)s1 [Compound I-1, 5-(2,4-Dihydroxy-5-isopropylphenyl)-N-ethyl-4-(5-(morpholinomethyl)thiophen-2-yl)isoxazole-3-carboxamide] | < 500 | < 500 |
| CCNC(=O)c1noc(-c2cc(C(C)C)c(O)cc2O)c1-c1nnnn1C [Compound I-11, 5-(2,4-Dihydroxy-5-isopropylphenyl)-N-ethyl-4-(1-methyl-1H-tetrazol-5-yl)isoxazole-3-carboxamide] | < 500 | < 500 |
| CCNC(=O)c1noc(-c2cc(C(C)C)c(O)cc2O)c1-c1noc(C(C)C)n1 [Compound I-65, 5-(2,4-Dihydroxy-5-isopropylphenyl)-N-ethyl-4-(5-isopropyl-1,2,4-oxadiazol-3-yl)isoxazole-3-carboxamide] | < 500 | < 500 |
| CCNC(=O)C1=NOC(c2c(C(=O)NCC)noc2-c2cc(C(C)C)c(O)cc2O)C1 (stereo not shown) [Compound I-8, 5-(2,4-Dihydroxy-5-isopropylphenyl)-N-ethyl-4-(3-(ethylcarbamoyl)-4,5-dihydroisoxazol-5-yl)isoxazole-3-carboxamide] | 500 to 1000 | < 500 |
